Our source for the IC50 and viability, T/C values is PubChem BioAssay AID1963849 (Molecular Pharmacology Branch, DTP, NCI, 2024).

The subject of this experiment is 299254-011-R-J1-PDC complex spheroid viability. Briefly: Anticancer human tumor 299254-011-R-J1-PDC patient-derived melanoma cell line growth inhibition [POLQ]. Particulars: for viability, T/C: stronger effect = lower value. On the procedure: Multicellular complex tumor spheroid response to Polymerase (POL) inhibitors (novobiocin, ART-558, RP6685) in combination with a variety of drugs and investigational agents in selected tumor cell lines
The POL inhibitors (novobiocin, ART-558, and RP6685) were evaluated both individually and in combination with standard of care and investigational anticancer small molecules within a complex spheroid model of solid tumors. . Complex spheroids include a stromal component modeled by human endothelial cells (HUVEC) and fibroblasts modeled by human mesenchymal stem cells (MSCs). The concentration ranges selected for each drug and investigational agent were based upon clinically achievable concentrations if the clinical Cmax of the agent was known.
Compounds. The drugs and investigational agents: novobiocin (NSC847541), ART-558 (NSC835418), RP-6685 (NSC848927), peposertib (NSC802822), ceralasertib (NSC780249), elimusertib (NSC800525), camonsertib (NSC841442), AZD-1390 (NSC803789), olaparib (NSC753686), talazoparib (NSC767125), rucaparib (NSC756644), sotorasib (NSC818433), MRTX-1133 (NSC836407), SN-38 (NSC673596), topotecan (NSC609699), epotoside (NSC141540), doxorubicin (NSC123127), gemcitabine (NSC613327), 5-fluorouracil (NSC19893), paclitaxel (NSC125973), vemurafenib (NSC761431), MSA-2 (NSC828583), SN-011 (NSC837082), adavosertib (NSC754352), prexasertib (NSC758257), carboplatin (NSC241240) and oxaliplatin (NSC266046), were obtained from the National Cancer Institute (NCI) Developmental Therapeutics Program Chemical Repository (21). The FDA-approved anticancer drug set is available from the Developmental Therapeutics Program at https://dtp.cancer.gov/organization/dscb/obtaining/. […] The stock solutions were prepared in dimethyl sulfoxide (DMSO, Sigma-Aldrich, St. Louis, MO, cat. D2650), except for the platinum compounds which were prepared in saline (Quality Biological, Gaithersburg, MD, cat. 114-055-101), at 800-fold the tested concentration and stored at -70 degrees C prior to their use. All drugs and investigational agents were tested over a range starting from a high concentration at or near the clinical Cmax and decreasing in half-log increments. If the clinical Cmax for an agent had not been determined, the highest concentration tested was 10 microM, except for SN-38, which was tested at a high concentration of 1 microM.
Cell Culture. All cells were maintained in an incubator at 37 degrees C and 5% CO2 with 95% humidity. The PDC lines were cultured according to standard operating procedures established by the NCI PDMR (https://pdmr.cancer.gov). Table 3 of the manuscript, lists the cell lines along with the number of the three cell types plated to form the mct-spheroids and media for tumor cell growth. After thawing, all PDC lines, except 997537-175-T-J1-PDC and 415267-285-R-J2-PDC, were cultured in Matrigel-coated flasks prepared with a working solution of 1X Ham's F-12 nutrient mix, without supplementation (Thermo Fisher Scientific, cat. 11765054), 100 U/mL penicillin-streptomycin (Thermo Fisher Scientific, cat. 15140122), and 2.5% Matrigel (Corning Inc., Corning, NY, cat. 354248) for the first three passages. The two PDC lines 997537-175-T-J1-PDC and 415267-285-R-J2-PDC were cultured on uncoated flasks. The 857933-349-R-J2-PDC line was cultured in 6C/Colon 1B media containing advanced DMEM/F-12 (Thermo Fisher Scientific, cat. 12634028), 10 mM HEPES (Thermo Fisher Scientific, cat. 15630080), 1X GlutaMAX supplement (Thermo Fisher Scientific, cat. 35050061), 0.1 mg/mL primocin (InvivoGen, San Diego, CA, cat. ant-pm-2), 10% defined fetal bovine serum, heat inactivated (HyClone Laboratories Inc., Logan, UT, cat. SH30070.03HI), 50% L-WRN conditioned media (ATCC, cat. CRL-3276), 1.25 mM N-Acetyl-L-cysteine (Sigma-Aldrich, cat. A9165), 10 mM nicotinamide (Sigma-Aldrich, cat. N0636), 1X B-27 supplement (Thermo Fisher Scientific, cat. 17504044), 1X N-2 supplement (Thermo Fisher Scientific, cat. […]

Structures are written as SMILES. pIC50: −log10 of the molar value. Values joined by “and” are separate entries in the source; they are usually repeats but may differ in a detail not shown here. Identical values can stand only once.
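Further: spheroids exposed to drugs for one week before measurement.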
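Wherever viability, T/C is given: percent viability relative to DMSO vehicle control taken as 100%.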

Turning to `O=c1[nH]cc(F)c(=O)[nH]1` + Nc1ccc(C#CCN(C(=O)Cc2ncc(C(F)(F)F)cc2C(F)(F)F)c2ccc(F)cc2)nn1, the pIC50 by setting is: (curve of first compound, second compound 0.0316 µM) < 5.00; (curve of first compound, second compound 0.1 µM) < 5.00; (curve of first compound, second compound 0.316 µM) < 5.00; (curve of first compound, second compound 1 µM) < 5.00; (curve of first compound, second compound 3.16 µM) < 5.00; (curve of first compound, second compound 10 µM) < 5.00. Besides, the viability, T/C is 92.7% (second compound 0.0316 µM, first compound 0.0316 µM); 111% (second compound 0.0316 µM, first compound 0.1 µM); 101% (second compound 0.0316 µM, first compound 0.316 µM); 113% (second compound 0.0316 µM, first compound 1 µM); 89.8% (second compound 0.0316 µM, first compound 3.16 µM); 81.4% (second compound 0.0316 µM, first compound 10 µM). The viability, T/C was 103% (second compound 0.1 µM, first compound 0.0316 µM); 91.2% (second compound 0.1 µM, first compound 0.1 µM); 119% (second compound 0.1 µM, first compound 0.316 µM); 87% (second compound 0.1 µM, first compound 1 µM); 82.5% (second compound 0.1 µM, first compound 3.16 µM); 85.3% (second compound 0.1 µM, first compound 10 µM). For the same compound, the viability, T/C (second compound 0.316 µM, first compound 0.0316 µM) was 92%; the viability, T/C (second compound 0.316 µM, first compound 0.1 µM) is 93.3%; the viability, T/C (second compound 0.316 µM, first compound 0.316 µM) was 101%; the viability, T/C (second compound 0.316 µM, first compound 1 µM) was 101%; the viability, T/C (second compound 0.316 µM, first compound 3.16 µM) is 95.1%; the viability, T/C (second compound 0.316 µM, first compound 10 µM) was 68%. The viability, T/C was 116% (second compound 1 µM, first compound 0.0316 µM); 99.8% (second compound 1 µM, first compound 0.1 µM); 95.1% (second compound 1 µM, first compound 0.316 µM); 85.6% (second compound 1 µM, first compound 1 µM); 91.5% (second compound 1 µM, first compound 3.16 µM); 78.5% (second compound 1 µM, first compound 10 µM). Further, the viability, T/C is 104% (second compound 3.16 µM, first compound 0.0316 µM); 95% (second compound 3.16 µM, first compound 0.1 µM); 101% (second compound 3.16 µM, first compound 0.316 µM); 96.8% (second compound 3.16 µM, first compound 1 µM); 84.3% (second compound 3.16 µM, first compound 3.16 µM); 89.5% (second compound 3.16 µM, first compound 10 µM). Further, the viability, T/C was 91.1% (second compound 10 µM, first compound 0.0316 µM); 94.2% (second compound 10 µM, first compound 0.1 µM); 101% (second compound 10 µM, first compound 0.316 µM); 95.4% (second compound 10 µM, first compound 1 µM); 88.7% (second compound 10 µM, first compound 3.16 µM); 69.1% (second compound 10 µM, first compound 10 µM).

`CC(C)n1c(=O)n(C)c2cnc3cc(F)c(-c4ccc(OCCCN5CCCCC5)nc4)cc3c21`: the viability, T/C (compound 0.0316 µM) was 98.8% and 106% and 88.4%; the viability, T/C (compound 0.1 µM) is 96.7% and 99.9% and 85.7%; the viability, T/C (compound 0.316 µM) was 112% and 108% and 95.3%; the viability, T/C (compound 1 µM) is 101% and 95.5% and 94.9%; the viability, T/C (compound 3.16 µM) was 89.8% and 106% and 90.2%; the viability, T/C (compound 10 µM) is 73.4% and 78.9% and 88.5%. Besides, the pIC50 (curve of compound) was < 5.00.

Turning to `COC1C(OC(N)=O)C(O)C(Oc2ccc3c(O)c(NC(=O)c4ccc(O)c(CC=C(C)C)c4)c(=O)oc3c2C)OC1(C)C` (stereo not drawn), the viability, T/C (compound 3.16 µM) is 102% [middle of 13 runs]. In addition, the pIC50 (compound alone, run of 11/27/2023) is < 5.00.

As for `COc1cccc2c1C(=O)c1c(O)c3c(c(O)c1C2=O)CC(O)(C(=O)CO)CC3OC1CC(N)C(O)C(C)O1` (stereo not drawn), the viability, T/C is 83.7% and 89.6% and 90% (compound 0.0316 µM); 80.1% and 91.1% and 93.3% (compound 0.1 µM); 69.1% and 73.4% and 55.2% (compound 0.316 µM); 59% and 60.7% and 46% (compound 1 µM); 9.86% and 15.5% and 12% (compound 3.16 µM); 0.74% and 1.67% and 3.35% (compound 10 µM). Further, the pIC50 (curve of compound) was 5.92 and 6.21.
